{"source": "patent US9351992B2", "about": "“Non-anticoagulant polysaccharide compositions” (MOMENTA PHARMACEUTICALS, INC., priority 2007, dated 2016)", "tested_on": "C170HM2 human colorectal tumor cells", "experiment": "Colon cancer metastasis to the liver (orthotopic liver metastasis model)", "assay_type": "in vivo, MF1 nude (nu/nu) athymic mice", "description": "Liver metastasis was initiated by intraperitoneal injection of C170HM2 human colorectal tumor cells into male MF1 nude (nu/nu) athymic mice. 5FU/leucovorin was used as a positive control.\nC170HM2 cells were maintained in vitro in RPMI culture medium (Sigma) containing 10% (v/v) heat inactivated fetal bovine serum and 2 mM L-glutamine at 37° C. in 5% CO2 and humidified conditions. Cells from sub-confluent monolayers were harvested with 0.025% EDTA, washed in culture medium and re-suspended in sterile phosphate buffered saline, pH 7.4 (PBS) for in vivo administration. 1.5×10^6 cells in a volume of 1 ml were injected intraperitoneally into 65 mice, and the mice were allocated into treatment groups as below.\nTreatment was initiated on day 1 following cell injection and continued until day 35 or until the clinical condition of the animal required termination. One mouse in group 6 was terminated on day 20 due to black tail, bruising, and very pale appearance. Groups and 6 missed one dose on day 5. No adverse affects of the test compounds in mice bearing the tumors were observed.\nThe study was terminated on day 35, and the tumors in the liver were excised and weighed.", "key": {"[1]": {"settings": "25 mg/kg i.v. days 1, 3, 5, 7, calculated in comparison to group 7 (untreated), not group 1"}, "[2]": {"settings": "25 mg/kg i.v., compared to the untreated control group (group 7)"}}, "note": "Marks after values point to notes of the source that are not given here.", "data": [{"substance": "5FU/leucovorin [5 FU/Leu]", "values": [{"measurement": "Mean tumor weight", "setting": "25 mg/kg i.v. cycled on days 1, 3, 5, 7, liver tumors day 35", "result": 0.037, "unit": "g"}, {"measurement": "Mean tumor area (% of vehicle)", "setting": "[1]", "result": "15.7 % of vehicle"}, {"measurement": "Mean tumor weight (% of vehicle)", "setting": "[1]", "result": "11.94* % of vehicle"}, {"measurement": "Mean tumor area (mm^2)", "setting": "25 mg/kg i.v. days 1, 3, 5, 7, cross-sectional area, day 35", "result": 13.12, "unit": "mm^2"}, {"measurement": "decrease in tumor cross-sectional area", "setting": "[2]", "result": 84, "unit": "%"}, {"measurement": "decrease of tumor weight in the liver", "setting": "[2]", "result": "approximately 88%"}, {"measurement": "decrease in tumor size", "setting": "25 mg/kg i.v., compared to the vehicle control group (group 1), not significant", "result": 62, "unit": "%"}]}]}
